Experimental data: patent US6599908B1, “Fused polycyclic 2-aminopyrimidine derivatives” (Celltech R & D Limited, priority 1996, dated 2003)

## COc1cc(Nc2ncc3c(n2)-c2ccccc2CCC3)cc(OC)c1OC [Example 6, N-(3,4,5-Trimethoxyphenyl)-6,7-dihydro-5H-benzo[6,7]cyclohepta[d]pyrimidine-2-amine]
  melting point: 201 to 202 °C
